Experimental data published in BindingDB's records for doi:10.1074/jbc.M109.039511 (University of Florida, 2010).
Structures can show the parent of a compound that is named as a salt.

Each compound was assayed against T1, Acid phosphatase (Francisella tularensis subsp. tularensis (strain SCHU S4 / Schu 4), UniProt Q5NIC0) (assay: Inhibitor Screening Assay).
T1 sequence (Q5NIC0 whole entry): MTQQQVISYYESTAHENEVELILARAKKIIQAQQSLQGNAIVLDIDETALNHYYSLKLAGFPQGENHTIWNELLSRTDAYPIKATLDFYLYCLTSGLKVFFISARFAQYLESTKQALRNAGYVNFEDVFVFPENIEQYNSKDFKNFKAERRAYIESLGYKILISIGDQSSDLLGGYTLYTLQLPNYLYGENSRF
Procedure: The inhibitor screening assays were performed in 96-well format with 1152 small molecules found in the Prestwick chemical library (Prestwick Chemical, France).

**Q.** For O=c1c(O)c(-c2cc(O)c(O)c(O)c2)oc2cc(O)cc(O)c12, which Ki is on record?
**A.** The Ki was 154 µM.

**Q.** Which Ki does the source give for O=c1c(O)c(-c2ccc(O)cc2)oc2cc(O)cc(O)c12 here?
**A.** Its Ki is 190 µM.

**Q.** COc1ccc(CC2c3cc(OC)c(OC)cc3CC[N+]2(C)CCC(=O)OCCCCCOC(=O)CC[N+]2(C)CCc3cc(OC)c(OC)cc3C2Cc2ccc(OC)c(OC)c2)cc1OC (stereo not drawn) was tested. Which Ki did it give?
**A.** The Ki was 342 µM.

**Q.** Which Ki does the source give for O=C1OC(C(O)CO)=C(O)C1OP(=O)(O)O [2-phospho-L-ascorbic acid] here?
**A.** Its Ki is 0.32 µM.

**Q.** For CCN(CC)CCNC(=O)c1ccc(N)cc1 [4-amino-N-[2-(diethylamino)ethyl]benzamide;hydrochloride], which Ki is on record?
**A.** The Ki was 14.8 µM.

**Q.** How did the Ki turn out when CC1(C)OC[C@@H]([C@H]2OC(=O)C(=O)C2O)O1 (stereo partly drawn) [(+)-5,6-O-Isopropylidene-L-ascorbic acid] was run?
**A.** Its Ki is 3.27 µM.

**Q.** How did the Ki turn out when CCCCCCCCCCCCCCCC[N+](C)(C)CCN(Cc1ccc(OC)cc1)c1ncccn1 [SMR001233380] was run?
**A.** The Ki was 0.59 µM.

**Q.** Which Ki does the source give for OC[C@H](O)c1oc(O)c(O)c1O [ascorbic acid] here?
**A.** Its Ki is 380 µM.
